Measurements from patent US8546608B2, “Proteasome inhibitors and methods of using the same” (Cephalon, Inc., priority 2003, dated 2013).
Like-named read-outs stand apart in the source and are kept apart here.

Experiments:
[1] = biological target: T1, 20S Human Erythrocyte Proteasome (HEP) (Homo sapiens, UniProt P20618+P28074); assay: Chymotrypsin-like activity of 20S Human Erythrocyte Proteasome (HEP), IC50 determination; type: biochemical; conditions: assay of Example C, inhibition of HEP
T1 construct: 20S Human Erythrocyte Proteasome (HEP), purchased from Immatics Biotechnologies Inc; purchased Immatics Biotechnologies Inc., Tübingen, Germany; host or cells: human erythrocytes (natural source)
Method in brief: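 20S proteasome at 0.2 μg/mL (about 0.6 nM catalytic sites) in 20 mM Tris with 0.04% SDS, preincubated 15 min at 37° C with inhibitor before Suc-LLVY-AMC (100 μM final). AMC fluorescence read in the linear range; triplicates, IC50 from concentration series.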

[2] = biological target: T2, proteasome in Molt-4 cells (human leukemia) (Homo sapiens, UniProt P20618+P28074); type: cell-based
T2 sequence (P28074 60-263): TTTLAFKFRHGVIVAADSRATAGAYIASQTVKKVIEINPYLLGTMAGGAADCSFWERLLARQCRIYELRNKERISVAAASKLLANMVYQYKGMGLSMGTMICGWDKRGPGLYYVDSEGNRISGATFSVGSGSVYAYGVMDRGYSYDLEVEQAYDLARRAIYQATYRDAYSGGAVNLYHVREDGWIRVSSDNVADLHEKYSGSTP
T2 sequence (P20618 29-241): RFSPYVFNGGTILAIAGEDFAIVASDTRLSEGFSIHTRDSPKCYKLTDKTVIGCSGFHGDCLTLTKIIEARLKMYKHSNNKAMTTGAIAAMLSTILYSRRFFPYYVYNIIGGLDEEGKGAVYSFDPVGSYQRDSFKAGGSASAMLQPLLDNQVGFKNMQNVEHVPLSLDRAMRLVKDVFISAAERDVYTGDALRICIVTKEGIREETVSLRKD
Method in brief: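 Intact Molt-4 cells (6×10^6 cells/mL) in HEPES-buffered saline were preincubated with inhibitor 15 min at 37 °C, then given cell-permeable MeOSuc-FLF-AFC at 25 μM final.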

[3] = assay of Example E, inhibition of MOLT4; read-out: MOLT4 (EC50)

| SMILES | IC50 [1] | melting point | EC50 [2, 3] | EC50 ([2]; read-out: MOLT4 (EC50); assay of Example E, inhibition of MOLT4) |
| --- | --- | --- | --- | --- |
| CC(C)C[C@H](NC(=O)[C@@H](NC(=O)c1ccc(-c2ccccc2)cc1)[C@@H](C)O)B(O)O [E.3.5, Boronic acid, [(1R)-1-[[(2S,3R)-3-hydroxy-2-[(4-phenylbenzoyl)amino]-1-oxobutyl]amino]-3-methylbutyl]] | < 0.01 µM | 200 to 208 °C | < 0.2 µM | – |
| CCCCc1ccc(C(=O)N[C@@H](CNS(C)(=O)=O)C(=O)N[C@@H](CC(C)C)B(O)O)cc1 [E.5.3, Boronic acid, [(1R)-1-[[(2S)-3-(methanesulfamido)-2-[(4-butyl)-benzoylamino]-1-oxopropyl]amino]-3-methylbutyl]] | < 0.1 µM | 120 to 123 °C | 0.2 to 2 µM | – |
| CCCCc1ccc(C(=O)N[C@@H](CNC(=O)OCc2ccccc2)C(=O)N[C@@H](CC(C)C)B(O)O)cc1 [E.5.6] | < 0.01 µM | 92 to 96 °C | < 0.2 µM | – |
| CCCCc1ccc(C(=O)N[C@@H](CNC(C)=O)C(=O)N[C@@H](CC(C)C)B(O)O)cc1 [E.5.8] | < 0.01 µM | 107 to 109 °C | < 0.2 µM | – |
| CCCCc1ccc(C(=O)N[C@@H](CNS(=O)(=O)c2ccc(F)cc2)C(=O)N[C@@H](CC(C)C)B(O)O)cc1 [E.5.11, Boronic acid, [(1R)-1-[[(2S)-3-[4-fluoro-benzenesulfonamide]-2-[(4-butylbenzoyl)amino]-1-oxopropyl]amino]-3-methylbutyl]] | < 0.01 µM | 130 to 132 °C | < 0.2 µM | – |
| CCCCc1ccc(C(=O)N[C@@H](CNC(=O)c2cccn2C)C(=O)N[C@@H](CC(C)C)B(O)O)cc1 [E.5.16, Boronic acid, [(1R)-1-[[(2S)-3-[1-N-methyl-2-pyrrolylcarbonylamino]-2-[(4-butylbenzoyl)amino]-1-oxopropyl]amino]-3-methylbutyl]] | < 0.01 µM | 130 to 135 °C | < 0.2 µM | – |
| CCCCc1ccc(C(=O)N[C@@H](CNC(=O)c2ccc(S(N)(=O)=O)cc2)C(=O)N[C@@H](CC(C)C)B(O)O)cc1 [E.5.17, Boronic acid, [(1R)-1-[[(2S)-3-[4-sulfamylbenzoylamino]-2-[(4-butylbenzoyl)amino]-1-oxopropyl]amino]-3-methylbutyl]] | < 0.01 µM | 156 to 159 °C | 0.2 to 2 µM | – |
| CCCCc1ccc(C(=O)N[C@@H](CNC(=O)c2ccc(S(C)(=O)=O)cc2)C(=O)N[C@@H](CC(C)C)B(O)O)cc1 [E.5.20, Boronic acid, [(1R)-1-[[(2S)-3-[(4-methylsulfonyl)benzoylamino]-2-[(4-butylbenzoylamino)]-1-oxopropyl]amino]-3-methylbutyl]] | < 0.01 µM | 168 to 170 °C | < 0.2 µM | – |
| CCCCCCCCCC(=O)N[C@@H](CNC(=O)c1cccnc1)C(=O)N[C@@H](CC(C)C)B(O)O [E.5.22, Boronic acid, [(1R)-1-[[(2S)-3-(nicotinoylamino)-2-(decanoylamino)-1-oxopropyl]amino]-3-methylbutyl]] | < 0.01 µM | 136 to 141 °C | < 0.2 µM | – |
| CCCCc1ccc(C(=O)N[C@@H](CNC(=O)c2ccc(-c3nn[nH]n3)cc2)C(=O)N[C@@H](CC(C)C)B(O)O)cc1 [E.5.24, Boronic acid, [(1R)-1-[[(2S)-3-[4-(1H-tetrazolyl)-phenylcarbonylamino]-2-[(4-butylbenzoylamino)]-1-oxopropyl]amino]-3-methylbutyl]] | < 0.01 µM | > 250 °C | 0.2 to 2 µM | – |
| CCCCc1ccc(C(=O)N[C@@H](CNC(=O)c2ccno2)C(=O)N[C@@H](CC(C)C)B(O)O)cc1 [E.5.25, Boronic acid, [(1R)-1-[[(2S)-3-(2-isoxazolylcarbonylamino)-2-[(4-butylbenzoylamino)]-1-oxopropyl]amino]-3-methylbutyl]] | < 0.01 µM | 175 to 180 °C | < 0.2 µM | – |
| CCCCc1ccc(C(=O)N[C@@H](CNS(=O)(=O)c2cn(C)cn2)C(=O)N[C@@H](CC(C)C)B(O)O)cc1 [E.5.26, Boronic acid, [(1R)-1-[[(2S)-3-[1-methyl-1H-imidazole-4-sulfamoyl]-2-[(4-butylbenzoyl)amino]-1-oxopropyl]amino]-3-methylbutyl]] | < 0.01 µM | 120 to 123 °C | 0.2 to 2 µM | – |
| CCCCc1ccc(C(=O)N[C@@H](CNS(=O)(=O)c2ccc(N3CCOCC3)nc2)C(=O)N[C@@H](CC(C)C)B(O)O)cc1.Cl [E.5.27, Boronic acid, [(1R)-1-[[(2S)-3-[6-morpholin-4-yl-pyridine-3-sulfamoyl]-2-[(4-butylbenzoyl)amino]-1-oxopropyl]amino]-3-methylbutyl] hydrochloride] | < 0.01 µM | 182 to 184 °C | – | < 0.2 µM |
| CCCCc1ccc(C(=O)N[C@@H](CNC(=O)c2ccc(N3CCOCC3)nc2)C(=O)N[C@@H](CC(C)C)B(O)O)cc1 [E.5.28, Boronic acid, [(1R)-1-[[(2S)-3-(6-morpholinonicotinamide]-2-[(4-butylbenzoyl)amino]-1-oxopropyl]amino]-3-methylbutyl]] | < 0.01 µM | 178 to 180 °C | < 0.2 µM | – |
| CC(C)C[C@H](NC(=O)[C@H](CNS(=O)(=O)c1ccc(F)cc1)NC(=O)c1ccc(Oc2ccccc2)cc1)B(O)O [E.5.30, Boronic acid, [(1R)-1-[[(2S)-3-[4-fluoro-benzenesulfonamide]-2-[(4-phenoxybenzoyl)amino]-1-oxopropyl]amino]-3-methylbutyl]] | < 0.01 µM | 150 to 155 °C | 0.2 to 2 µM | – |
| Cc1cc(C(=O)NC[C@H](NC(=O)c2ccc(Oc3ccccc3)cc2)C(=O)N[C@@H](CC(C)C)B(O)O)n(C)n1 [E.5.31] | < 0.01 µM | 145 to 148 °C | < 0.2 µM | – |
| CC(C)C[C@H](NC(=O)[C@H](CNC(=O)Nc1ccccc1)NC(=O)c1ccc(Oc2ccccc2)cc1)B(O)O [E.5.32, Boronic acid, [(1R)-1-[[(2S)-3-(4-phenylureido]-2-[(4-phenoxybenzoyl)amino]-1-oxopropyl]amino]-3-methylbutyl]] | < 0.01 µM | 155 to 158 °C | < 0.2 µM | – |
| CCCCc1ccc(C(=O)N[C@@H](CNC(=O)c2ccc(-c3ccccc3)cc2)C(=O)N[C@@H](CC(C)C)B(O)O)cc1 [E.5.33, Boronic acid, [(1R)-1-[[(2S)-3-(4-phenybenzamide]-2-[(4-butylbenzoyl)amino]-1-oxopropyl]amino]-3-methylbutyl]] | < 0.01 µM | 178 to 180 °C | 0.2 to 2 µM | – |
| CC(C)C[C@H](NC(=O)[C@H](CNC(=O)c1ccc(-c2ccccc2)cc1)NC(=O)c1ccc(Oc2ccccc2)cc1)B(O)O [E.5.34, Boronic acid, [(1R)-1-[[(2S)-3-(4-phenylbenzamide]-2-[(4-phenoxybenzoyl)amino]-1-oxopropyl]amino]-3-methylbutyl]] | < 0.01 µM | 158 to 160 °C | < 0.2 µM | – |
| CCCCc1ccc(C(=O)N[C@@H](CNC(=O)C#Cc2ccccc2)C(=O)N[C@@H](CC(C)C)B(O)O)cc1 [E.5.35] | < 0.01 µM | 138 to 140 °C | < 0.2 µM | – |
| CCCCc1ccc(C(=O)N[C@@H](CNC(=O)NS(=O)(=O)c2ccc(C)cc2)C(=O)N[C@@H](CC(C)C)B(O)O)cc1 [E.5.36] | < 0.1 µM | 175 to 177 °C | 0.2 to 2 µM | – |
| CCCCc1ccc(C(=O)N[C@@H](CNC(=O)c2csc(-c3ccncc3)n2)C(=O)N[C@@H](CC(C)C)B(O)O)cc1 [E.5.37, Boronic acid, [(1R)-1-[[(2S)-3-(4-(2-(4-pyridyl)-1,3-thiazole-4-carbonylamino)]-2-[(4-butylbenzoyl)amino]-1-oxopropyl]amino]-3-methylbutyl]] | < 0.01 µM | 155 to 158 °C | < 0.2 µM | – |
